# Assay results as given in patent US20240398787A1, “TREATMENT OF MAJOR DEPRESSIVE DISORDER” (AbbVie Inc., priority 2021, published 2024).
# Tested on: patients with major depressive disorder (MDD)
# Experiment: MADRS total score, Clinical Study A (Study 301): cariprazine adjunctive to ADT, 6-week double-blind
# Assay type: in vivo, human
# Conditions: for Proportion of patients with MADRS improvement ≥5 points / Proportion of patients with MADRS improvement ≥10 points / Proportion of patients with MADRS improvement ≥15 points / Proportion of patients with MADRS improvement ≥20 points / Proportion of patients with MADRS improvement ≥25 points: post hoc, end of week 6 (LOCF); for MADRS remission rate (total score ≤10) / MADRS response rate (≥50% score reduction from baseline): LOCF
# Procedure: A global, multicenter, randomized, double-blind (DB), placebo-controlled, parallel-group, fixed-dose study compared cariprazine 1.5 mg/day and cariprazine 3 mg/day with placebo as an adjunctive treatment to ongoing ADT in outpatients with a diagnosis of MDD (via the Diagnostic and Statistical Manual of Mental Disorders, Fifth Edition [DSM-5]) having an inadequate response, as measured by the modified Antidepressant Treatment Response Questionnaire (ATRQ), to 1 to 3 antidepressants administered during the current episode at an adequate dose and adequate duration. Adequate dose was defined as a dose above the minimum labeled dose (per package insert). Adequate duration was defined as continuous ADT treatment for at least 6 weeks, with a minimum of 3 of 6 weeks above the minimal dose.
# The study population included patients meeting criteria for MDD with a current major depressive episode of at least 8 weeks to less than 24 months in duration and an inadequate response to ongoing antidepressant therapy on the current episode. Both male and female patients of 18 to 65 years of age qualified for the study. Patients met the DSM-5 criteria for MDD based on the SCID-5, with a current major depressive episode of at least 8 weeks to less than 24 months in duration at the time of patient screening. A diagnosis of MDD with psychotic features was […].
# Adequate dose was defined as a dose above the minimum labeled dose (per package insert). Adequate duration was defined as continuous antidepressant therapy treatment for at least 6 weeks, with a minimum of 3 of 6 weeks above the minimum dose.
# The study consisted of up to 14 days screening (with up to an additional 7 days of needed) and washout of prohibited medications followed by 6 weeks of double-blind (DB) treatment followed by a 4-week safety follow-up. At the end of the screening period, patients meeting the entry criteria for the study were randomized (1:1:1) to 1 of 3 double-blind treatment groups. Study treatment groups were: cariprazine 1.5 mg/day+antidepressant therapy and cariprazine 3 mg/day+antidepressant therapy. The control group received matching placebo+antidepressant therapy.
# Dosage/Dose Regimen: Investigational product (cariprazine or placebo) in the form of capsules packaged in blister packs will be provided. No investigational product was administered during the screening/washout period; patients continued the same antidepressant and dose they were on at screening. Patients were taking more than one antidepressant at screening, regardless of the indication, discontinued all other antidepressants prior to baseline (Visit 2). During the double-blind treatment period (6 weeks), patients were administered 1 capsule orally per day in addition to their ongoing ADT. Patients in the 1.5 mg/day+ADT arm were administered 1.5 mg+ADT starting at Visit 2 (Week 0). Patients in the 3 mg/day+ADT arm were administered 1.5 mg+ADT starting at Visit 2 (Week 0) for 2 weeks and then titrate to 3 mg/day+ADT starting at Visit 4 (Week 2). Patients were supplied with identically appearing capsules of either cariprazine 1.5 mg, cariprazine 3 mg, or placebo.
# A randomized, double-blind, placebo-controlled, multicenter trial with 759 participants was conducted in United States, Bulgaria, Estonia, Germany, Hungary, Ukraine, and the United Kingdom. Following a screening period of up to 14 days (with up to an additional 7 days if needed), which included a washout of prohibited psychotropic medications except for ongoing ADT, patients with a partial response to their antidepressant monotherapy were randomized into three treatment groups (1:1:1). One group received cariprazine 1.5 mg/d+ADT, one received cariprazine 3.0 mg/d+ADT, and one group received placebo+ADT. All participants randomized to cariprazine began on 1.5 mg/d; cariprazine 1.5 mg/d patients remained at that dosage, while cariprazine 3.0 mg/d patients received 1.5 mg/d for 2 weeks and increased to 3.0 mg/d on day 15. […]
# [1] = 1.5 mg/d + ADT, week 6, ANCOVA and LOCF
# [2] = 3.0 mg/d + ADT, week 6, ANCOVA and LOCF
# [3] = change from baseline to week 6, dose not stated
compound,measurement,setting,value
"CN(C)C(=O)N[C@H]1CC[C@H](CCN2CCN(c3cccc(Cl)c3Cl)CC2)CC1 [Cariprazine, trans-N-{4-[2-[4-(2,3-dichlorophenyl)piperazin-1-yl]ethyl]cyclohexyl}-N′,N′-dimethylurea]",Proportion of patients with MADRS improvement ≥5 points,1.5 mg/d + ADT,84%
same,Proportion of patients with MADRS improvement ≥10 points,1.5 mg/d + ADT,64%
same,Proportion of patients with MADRS improvement ≥15 points,1.5 mg/d + ADT,46%
same,Proportion of patients with MADRS improvement ≥20 points,1.5 mg/d + ADT,33%
same,Proportion of patients with MADRS improvement ≥25 points,1.5 mg/d + ADT,19%
same,Mean (SD) MADRS score at week 6,"1.5 mg/d + ADT, week 6",17.4 (9.1)
same,LS mean change from baseline in MADRS total score,[1],−14.4
same,"LSMD vs placebo, MADRS total score",[1],−2.4
same,MADRS remission rate (total score ≤10),"1.5 mg/d + ADT, week 6",25.2%
same,MADRS response rate (≥50% score reduction from baseline),"1.5 mg/d + ADT, week 6",44.0%
same,"LS Mean (SE) change from baseline, MADRS total score","1.5 mg/day + ADT, week 1, MMRM",−4.4 (0.5)
same,"LSMD (95% CI) vs placebo + ADT, MADRS total score","1.5 mg/day + ADT, week 1, MMRM",−0.6 (−1.5; 0.5)
same,"MADRS remission, odds ratio vs placebo (95% CI)","1.5 mg/day + ADT, week 2","0.9 (0.4, 1.8)"
same,MADRS remissions (total score ≤10),"1.5 mg/day + ADT, week 2",13 (5.2) n (%)
same,MADRS responders (≥50% score reduction),"1.5 mg/day + ADT, week 2",43 (17.2) n (%)
same,"MADRS response, odds ratio vs placebo (95% CI)","1.5 mg/day + ADT, week 2","1.2 (0.7, 2.0)"
same,"LS Mean (SE) change from baseline, MADRS total score","1.5 mg/day + ADT, week 2, MMRM",−8.6 (0.6)
same,"LSMD (95% CI) vs placebo + ADT, MADRS total score","1.5 mg/day + ADT, week 2, MMRM",−1.2 (−2.5; 0)
same,"MADRS remission, odds ratio vs placebo (95% CI)","1.5 mg/day + ADT, week 4","1.2 (0.7, 1.9)"
same,MADRS remissions (total score ≤10),"1.5 mg/day + ADT, week 4",37 (14.8) n (%)
same,MADRS responders (≥50% score reduction),"1.5 mg/day + ADT, week 4",88 (35.2) n (%)
same,"MADRS response, odds ratio vs placebo (95% CI)","1.5 mg/day + ADT, week 4","1.6 (1.1, 2.3)"
same,"LS Mean (SE) change from baseline, MADRS total score","1.5 mg/day + ADT, week 4, MMRM",−12.4 (0.6)
same,"LSMD (95% CI) vs placebo + ADT, MADRS total score","1.5 mg/day + ADT, week 4, MMRM",−2.9 (−4.3; −1.5)
same,MADRS remissions (total score ≤10),"1.5 mg/day + ADT, week 6",63 (25.2) n (%)
same,MADRS responders (≥50% score reduction),"1.5 mg/day + ADT, week 6",110 (44.0) n (%)
same,"LSMD vs placebo, MADRS total score","1.5 mg/day + ADT, week 6, MMRM",−2.5 (−4.2; −0.9)
same,"LSMD vs placebo, MADRS total score","1.5 mg/day + ADT, week 6, MMRM, listed as CAR",−2.5
same,"LSMD vs placebo, MADRS total score","1.5 mg/day + ADT, week 6, MMRM, listed as cariprazine",−2.5
same,LS mean change from baseline in MADRS total score,"1.5 mg/day + ADT, week 6, MMRM, mITT",−14.1 (0.7)
same,LS mean change from baseline in MADRS total score,"1.5 mg/day + ADT, week 6, MMRM, mITT, listed as cariprazine",−14.1
same,Proportion of patients with MADRS improvement ≥5 points,3.0 mg/d + ADT,84%
same,Proportion of patients with MADRS improvement ≥10 points,3.0 mg/d + ADT,66%
same,Proportion of patients with MADRS improvement ≥15 points,3.0 mg/d + ADT,43%
same,Proportion of patients with MADRS improvement ≥20 points,3.0 mg/d + ADT,24%
same,Proportion of patients with MADRS improvement ≥25 points,3.0 mg/d + ADT,11%
same,Mean (SD) MADRS score at week 6,"3 mg/d + ADT, week 6",18.6 (8.9)
same,LS mean change from baseline in MADRS total score,[2],−13.3
same,"LSMD vs placebo, MADRS total score",[2],−1.3
same,MADRS remission rate (total score ≤10),"3.0 mg/d + ADT, week 6",16.7%
same,MADRS response rate (≥50% score reduction from baseline),"3.0 mg/d + ADT, week 6",39.3%
same,"LS Mean (SE) change from baseline, MADRS total score","3 mg/day + ADT, week 1, MMRM",−3.9 (0.5)
same,"LSMD (95% CI) vs placebo + ADT, MADRS total score","3 mg/day + ADT, week 1, MMRM",−0.1 (−1.0; 0.8)
same,"MADRS remission, odds ratio vs placebo (95% CI)","3 mg/day + ADT, week 2","0.5 (0.25, 1.23)"
same,MADRS remissions (total score ≤10),"3 mg/day + ADT, week 2",9 (3.6) n (%)
same,MADRS responders (≥50% score reduction),"3 mg/day + ADT, week 2",39 (15.5) n (%)
same,"MADRS response, odds ratio vs placebo (95% CI)","3 mg/day + ADT, week 2","1.1 (0.7, 1.8)"
same,"LS Mean (SE) change from baseline, MADRS total score","3 mg/day + ADT, week 2, MMRM",−7.8 (0.6)
same,"LSMD (95% CI) vs placebo + ADT, MADRS total score","3 mg/day + ADT, week 2, MMRM",−0.5 (−1.7; 0.8)
same,"MADRS remission, odds ratio vs placebo (95% CI)","3 mg/day + ADT, week 4","0.6 (0.4, 1.1)"
same,MADRS remissions (total score ≤10),"3 mg/day + ADT, week 4",22 (8.7) n (%)
same,MADRS responders (≥50% score reduction),"3 mg/day + ADT, week 4",60 (23.8) n (%)
same,"MADRS response, odds ratio vs placebo (95% CI)","3 mg/day + ADT, week 4","0.9 (0.6, 1.3)"
same,"LS Mean (SE) change from baseline, MADRS total score","3 mg/day + ADT, week 4, MMRM",−10.6 (0.6)
same,"LSMD (95% CI) vs placebo + ADT, MADRS total score","3 mg/day + ADT, week 4, MMRM",−1.0 (−2.4; 0.4)
same,MADRS remissions (total score ≤10),"3 mg/day + ADT, week 6",42 (16.7) n (%)
same,MADRS responders (≥50% score reduction),"3 mg/day + ADT, week 6",99 (39.3) n (%)
same,"LSMD vs placebo, MADRS total score","3 mg/day + ADT, week 6, MMRM",−1.5 (−3.2; 0.1)
same,"LSMD vs placebo, MADRS total score","3 mg/day + ADT, week 6, MMRM, listed as CAR",−1.5
same,LS mean change from baseline in MADRS total score,"3 mg/day + ADT, week 6, MMRM, mITT",−13.1
same,"LSMD vs placebo, MADRS individual item ""apparent sadness""",[3],−0.2
same,"LSMD vs placebo, MADRS individual item ""inability to feel""",[3],−0.3
same,"LSMD vs placebo, MADRS individual item ""lassitude""",[3],−0.3
same,"LSMD vs placebo, MADRS individual item ""pessimistic thoughts""",[3],−0.3
same,"LSMD vs placebo, MADRS individual item ""reduced appetite""",[3],−0.3
same,"LSMD vs placebo, MADRS individual item ""reported sadness""",[3],−0.4
same,"LSMD vs placebo, MADRS individual item ""suicidal thoughts""",[3],−0.1
